Where two headings read alike, the source gives them in different places.
Columns and labels:
[1] = test system: IL-4 induced STAT6 phosphorylation in THP-1 human monocytic cells; assay: Cellular JAK potency assay, THP-1
[2] = test system: IL-13 induced STAT6 phosphorylation in BEAS-2B human lung epithelial cells; assay: AlphaScreen cellular JAK potency assay, BEAS-2B
JAK1 = JAK1 (Homo sapiens (Human), UniProt P23458); assay: LanthaScreen JAK biochemical assay (JAK1)
JAK2 = JAK2 (Homo sapiens (Human), UniProt O60674); assay: LanthaScreen JAK biochemical assay (JAK2)
JAK2, sequence (O60674 whole entry): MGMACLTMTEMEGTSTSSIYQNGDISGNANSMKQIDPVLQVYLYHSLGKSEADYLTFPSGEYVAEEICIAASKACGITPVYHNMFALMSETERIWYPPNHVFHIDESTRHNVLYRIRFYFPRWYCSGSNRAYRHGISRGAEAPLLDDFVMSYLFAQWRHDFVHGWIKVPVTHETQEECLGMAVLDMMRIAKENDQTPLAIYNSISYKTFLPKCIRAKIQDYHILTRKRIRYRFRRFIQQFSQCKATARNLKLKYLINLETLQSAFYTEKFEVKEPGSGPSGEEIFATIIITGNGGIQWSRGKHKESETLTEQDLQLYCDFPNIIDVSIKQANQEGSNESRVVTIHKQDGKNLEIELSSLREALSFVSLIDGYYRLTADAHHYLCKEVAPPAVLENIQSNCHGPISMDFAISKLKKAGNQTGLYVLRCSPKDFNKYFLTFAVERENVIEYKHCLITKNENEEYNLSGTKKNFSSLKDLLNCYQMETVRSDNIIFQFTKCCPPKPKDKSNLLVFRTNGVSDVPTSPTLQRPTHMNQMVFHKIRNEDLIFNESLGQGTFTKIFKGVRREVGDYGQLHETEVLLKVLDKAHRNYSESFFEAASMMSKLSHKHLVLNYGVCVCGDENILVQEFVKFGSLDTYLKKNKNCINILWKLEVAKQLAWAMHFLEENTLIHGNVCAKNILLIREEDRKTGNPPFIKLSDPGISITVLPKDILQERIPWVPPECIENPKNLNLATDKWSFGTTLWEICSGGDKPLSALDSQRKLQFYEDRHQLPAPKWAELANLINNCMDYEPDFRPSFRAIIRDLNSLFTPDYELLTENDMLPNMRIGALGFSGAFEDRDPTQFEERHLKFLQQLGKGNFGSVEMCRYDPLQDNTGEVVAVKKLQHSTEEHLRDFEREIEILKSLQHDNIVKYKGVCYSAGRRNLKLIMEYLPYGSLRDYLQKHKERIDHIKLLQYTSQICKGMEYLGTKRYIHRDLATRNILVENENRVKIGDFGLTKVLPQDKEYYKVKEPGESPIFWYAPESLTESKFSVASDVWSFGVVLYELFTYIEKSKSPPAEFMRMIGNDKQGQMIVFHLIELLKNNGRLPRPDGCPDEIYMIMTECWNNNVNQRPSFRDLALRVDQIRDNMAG

[3] = Homo sapiens, THP-1, read-out: THP-1 IL4 pIC50 (converted)
[4] = Homo sapiens, BEAS-2B, read-out: BEAS2B pIC50 (converted)
[5] = IL-4 induced STAT6 phosphorylation, THP-1 cells
[6] = IL-13 induced STAT6 phosphorylation, BEAS-2B cells
[7] = THP-1 cells, IL-4 induced STAT6 phosphorylation
[8] = BEAS-2B cells, IL-13 induced STAT6 phosphorylation
[9] = read-out: JAK 1 (pKi) (converted)

JAK1, sequence (P23458 whole entry): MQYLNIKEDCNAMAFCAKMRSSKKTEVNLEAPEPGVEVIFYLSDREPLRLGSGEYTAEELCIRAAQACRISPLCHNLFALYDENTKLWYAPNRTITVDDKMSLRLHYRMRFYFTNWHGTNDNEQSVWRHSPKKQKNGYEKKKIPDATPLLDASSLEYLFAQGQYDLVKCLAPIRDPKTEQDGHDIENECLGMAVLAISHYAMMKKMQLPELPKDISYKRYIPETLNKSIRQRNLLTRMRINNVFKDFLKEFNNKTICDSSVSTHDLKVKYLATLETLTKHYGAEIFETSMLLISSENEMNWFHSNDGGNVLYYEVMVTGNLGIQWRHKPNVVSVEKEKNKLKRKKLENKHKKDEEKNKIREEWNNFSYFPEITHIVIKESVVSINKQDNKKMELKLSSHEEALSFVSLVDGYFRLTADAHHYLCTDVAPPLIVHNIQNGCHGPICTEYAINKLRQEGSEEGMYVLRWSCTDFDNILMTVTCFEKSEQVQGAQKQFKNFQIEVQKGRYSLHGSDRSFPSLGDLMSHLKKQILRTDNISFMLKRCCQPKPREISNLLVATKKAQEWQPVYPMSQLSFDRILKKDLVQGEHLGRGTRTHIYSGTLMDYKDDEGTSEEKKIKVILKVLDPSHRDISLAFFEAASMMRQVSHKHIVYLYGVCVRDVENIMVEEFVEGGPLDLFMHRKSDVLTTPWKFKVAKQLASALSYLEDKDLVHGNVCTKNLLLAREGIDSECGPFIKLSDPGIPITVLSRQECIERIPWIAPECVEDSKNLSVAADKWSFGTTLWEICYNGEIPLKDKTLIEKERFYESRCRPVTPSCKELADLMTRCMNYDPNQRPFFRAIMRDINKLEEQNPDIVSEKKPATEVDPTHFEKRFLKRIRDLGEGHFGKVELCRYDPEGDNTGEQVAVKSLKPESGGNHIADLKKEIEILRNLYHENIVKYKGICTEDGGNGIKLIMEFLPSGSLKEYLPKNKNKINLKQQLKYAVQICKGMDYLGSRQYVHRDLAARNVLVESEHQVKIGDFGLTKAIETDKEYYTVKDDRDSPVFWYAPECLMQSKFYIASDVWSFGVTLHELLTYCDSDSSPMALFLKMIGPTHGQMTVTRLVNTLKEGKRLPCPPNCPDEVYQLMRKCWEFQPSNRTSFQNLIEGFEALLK

`Cc1cc(Nc2cc3nc(CN4CCOCC4)ccc3c(N[C@@H]3C[C@H]4CC[C@@H](C3)N4S(=O)(=O)N3CCC3)n2)n[nH]1` [Example 5-21] was tested, and the IC50 [1, 3] was < 0.0316 µM and the IC50 [2, 4] was < 0.0316 µM.

`C=CCOC(=O)N1[C@@H]2CC[C@H]1C[C@H](Nc1nc(Nc3cc(C)[nH]n3)cc3nc(CN4CCOCC4)ccc13)C2` [Example 5-17] was tested, and the “THP-1 IL4 pIC50” value [1, 5] was “B (B represents a pEC50 value between 6.7 and 7.5 (EC50 between 200 nM and 32 nM))” and the “BEAS2B pIC50” value [2, 6] was “A (A represents a pEC50 value≥7.5 (EC50≤32 nM))”.

For `Cc1cc(Nc2nc(N[C@@H]3C[C@H]4CC[C@@H](C3)N4S(=O)(=O)c3cccnc3)c3cccnc3c2F)n[nH]1` [Example 8-4], the “JAK 1 (pKi)” value (JAK1) was “B (B represents a pKi value between 9 and 10 (Ki between 1 nM and 0.1 nM))”, the “THP-1 IL4 pIC50” value [1, 7] was “B (B represents a pEC50 value between 6.7 and 7.5 (EC50 between 200 nM and 32 nM))” and the “BEAS2B pIC50” value [2, 8] was “B (B represents a pEC50 value between 6.7 and 7.5 (EC50 between 200 nM and 32 nM))”.

In the case of `Cc1cc(Nc2nc(N[C@@H]3C[C@H]4CC[C@@H](C3)N4S(=O)(=O)c3cncc(F)c3)c3cccnc3c2F)n[nH]1` [Example 8-5], the “JAK 1 (pKi)” value (JAK1) is reported as “B (B represents a pKi value between 9 and 10 (Ki between 1 nM and 0.1 nM))”, the “THP-1 IL4 pIC50” value [1, 7] is reported as “B (B represents a pEC50 value between 6.7 and 7.5 (EC50 between 200 nM and 32 nM))” and the “BEAS2B pIC50” value [2, 8] is reported as “A (A represents a pEC50 value≥7.5 (EC50≤32 nM))”.

Molecule `CCS(=O)(=O)N1[C@@H]2CC[C@H]1C[C@H](Nc1nc(Nc3cc(C)[nH]n3)cc3nc(CN4CCOCC4)ccc13)C2` [Example 5-16] has an IC50 [1, 3] of 0.0316 to 0.2 µM and an IC50 [2, 4] of 0.0316 to 0.2 µM.

`Cc1cc(Nc2cc3ncccc3c(N[C@@H]3C[C@H]4CCC[C@@H](C3)N4S(=O)(=O)N3CCCC3)n2)n[nH]1` [Example 4-27] was tested, and the “THP-1 IL4 pIC50” value [1, 5] was “A (A represents a pEC50 value≥7.5 (EC50≤32 nM))” and the “BEAS2B pIC50” value [2, 6] was “A (A represents a pEC50 value≥7.5 (EC50≤32 nM))”.

In the case of `Cc1cc(Nc2cc3ncccc3c(N[C@@H]3C[C@H]4CCC[C@@H](C3)N4Cc3ccc(C#N)nc3)n2)n[nH]1` [Example 1-54], the “BEAS2B pIC50” value [2, 6] is reported as “B (B represents a pEC50 value between 6.7 and 7.5 (EC50 between 200 nM and 32 nM))”.

For `Cc1cc(Nc2cc3ncccc3c(N[C@@H]3C[C@H]4CCC[C@@H](C3)N4S(=O)(=O)N3CCC3)n2)n[nH]1` [Example 4-29], the “JAK 1 (pKi)” value (JAK1) was “A (A represents a pKi value≥10 (Ki≤0.1 nM))”, the “THP-1 IL4 pIC50” value [1, 5] was “A (A represents a pEC50 value≥7.5 (EC50≤32 nM))” and the “BEAS2B pIC50” value [2, 6] was “A (A represents a pEC50 value≥7.5 (EC50≤32 nM))”.

With `COc1ccc2c(N[C@@H]3C[C@H]4CC[C@@H](C3)N4CCCC#N)nc(Nc3cc(C)[nH]n3)cc2n1` [Example 5-2] the “JAK 1 (pKi)” value (JAK1) was “B (B represents a pKi value between 9 and 10 (Ki between 1 nM and 0.1 nM))”, the “THP-1 IL4 pIC50” value [1, 5] was “B (B represents a pEC50 value between 6.7 and 7.5 (EC50 between 200 nM and 32 nM))” and the “BEAS2B pIC50” value [2, 6] was “A (A represents a pEC50 value≥7.5 (EC50≤32 nM))”.

`COc1ccnc2cc(Nc3cc(C)[nH]n3)nc(N[C@@H]3C[C@H]4CC[C@@H](C3)N4C(=O)C(F)F)c12` [Example 7-5] was tested, and the Ki (JAK1) was 0.0001 to 0.001 µM, the IC50 [1, 3] was 0.0316 to 0.2 µM and the IC50 [2, 4] was 0.0316 to 0.2 µM.

In the case of `CCS(=O)(=O)N1[C@@H]2CCC[C@H]1C[C@H](Nc1nc(Nc3cc(C)[nH]n3)cc3ncccc13)C2` [Example 10, N^5-((1R,3s,5S)-9-(ethylsulfonyl)-9-azabicyclo[3.3.1]nonan-3-yl)-N^7-(5-methyl-1H-pyrazol-3-yl)-1,6-naphthyridine-5,7-diamine], the IC50 [1, 3] is reported as < 0.0316 µM and the IC50 [2, 4] is reported as < 0.0316 µM.

With `CCC(C)C(=O)N1[C@@H]2CC[C@H]1C[C@H](Nc1nc(Nc3cc(C)[nH]n3)cc3nccc(OC)c13)C2` (stereo partly shown) [Example 7-4] the “JAK 1 (pKi)” value (JAK1) was “B (B represents a pKi value between 9 and 10 (Ki between 1 nM and 0.1 nM))”, the “THP-1 IL4 pIC50” value [1, 7] was “B (B represents a pEC50 value between 6.7 and 7.5 (EC50 between 200 nM and 32 nM))” and the “BEAS2B pIC50” value [2, 8] was “B (B represents a pEC50 value between 6.7 and 7.5 (EC50 between 200 nM and 32 nM))”.

In the case of `COc1cnc2cc(Nc3cc(C)[nH]n3)nc(N[C@@H]3C[C@H]4CC[C@@H](C3)N4CC(F)(F)F)c2c1` [Example 6-17], the Ki (JAK1; [9]) is reported as 0.0001 to 0.001 µM, the IC50 [1, 3] is reported as < 0.0316 µM and the IC50 [2, 4] is reported as < 0.0316 µM.

`Cc1cc(Nc2cc3nc(CN4CCOCC4)ccc3c(N[C@@H]3C[C@H]4CCC[C@@H](C3)N4S(=O)(=O)c3cccnc3)n2)n[nH]1` [Example 5-27] was tested, and the “THP-1 IL4 pIC50” value [1, 5] was “A (A represents a pEC50 value≥7.5 (EC50≤32 nM))” and the “BEAS2B pIC50” value [2, 6] was “A (A represents a pEC50 value≥7.5 (EC50≤32 nM))”.

`Cc1cc(Nc2cc3nc(CN4CCOCC4)ccc3c(N[C@@H]3C[C@H]4CC[C@@H](C3)N4CC(F)(F)F)n2)n[nH]1` [Example 15, N^7-(5-methyl-1H-pyrazol-3-yl)-2-(morpholinomethyl)-N^5-((1R,3s,5S)-8-(2,2,2-trifluoroethyl)-8-azabicyclo[3.2.1]octan-3-yl)-1,6-naphthyridine-5,7-diamine] was tested, and the IC50 [1, 3] was < 0.0316 µM and the IC50 [2, 4] was < 0.0316 µM.

In the case of `COc1cnc2cc(Nc3cc(C)[nH]n3)nc(N[C@@H]3C[C@H]4CC[C@@H](C3)N4CC(C)C)c2c1` [Example 6-14], the “JAK 1 (pKi)” value (JAK1) is reported as “B (B represents a pKi value between 9 and 10 (Ki between 1 nM and 0.1 nM))”, the “THP-1 IL4 pIC50” value [1, 7] is reported as “A (A represents a pEC50 value≥7.5 (EC50≤32 nM))” and the “BEAS2B pIC50” value [2, 8] is reported as “A (A represents a pEC50 value≥7.5 (EC50≤32 nM))”.

In the case of `COc1ccc2c(N[C@@H]3C[C@H]4CC[C@@H](C3)N4CC(C)C)nc(Nc3cc(C)[nH]n3)cc2n1` [Example 5-4], the “JAK 1 (pKi)” value (JAK1) is reported as “B (B represents a pKi value between 9 and 10 (Ki between 1 nM and 0.1 nM))”, the “THP-1 IL4 pIC50” value [1, 5] is reported as “A (A represents a pEC50 value≥7.5 (EC50≤32 nM))” and the “BEAS2B pIC50” value [2, 6] is reported as “A (A represents a pEC50 value≥7.5 (EC50≤32 nM))”.

For `COc1cnc2cc(Nc3cc(C)[nH]n3)nc(N[C@@H]3C[C@H]4CC[C@@H](C3)N4CCCF)c2c1` [Example 6-16], the “JAK 1 (pKi)” value (JAK1) was “B (B represents a pKi value between 9 and 10 (Ki between 1 nM and 0.1 nM))”, the “THP-1 IL4 pIC50” value [1, 7] was “B (B represents a pEC50 value between 6.7 and 7.5 (EC50 between 200 nM and 32 nM))” and the “BEAS2B pIC50” value [2, 8] was “B (B represents a pEC50 value between 6.7 and 7.5 (EC50 between 200 nM and 32 nM))”.

Molecule `CNC(=O)CN1[C@@H]2CCC[C@H]1C[C@H](Nc1nc(Nc3cc(C)[nH]n3)cc3ncccc13)C2` [Example 17, N-methyl-2-((1R,3s,5S)-3-((7-((5-methyl-1H-pyrazol-3-yl)amino)-1,6-naphthyridin-5-yl)amino)-9-azabicyclo[3.3.1]nonan-9-yl)acetamide] has an IC50 [1, 3] of 0.0316 to 0.2 µM and an IC50 [2, 4] of 0.0316 to 0.2 µM.

For `COc1ccnc2cc(Nc3cc(C)[nH]n3)nc(N[C@@H]3C[C@H]4CC[C@@H](C3)N4CC(F)F)c12` [Example 7-8], the “JAK 1 (pKi)” value (JAK1) was “B (B represents a pKi value between 9 and 10 (Ki between 1 nM and 0.1 nM))”, the “JAK 2 (pKi)” value (JAK2) was “B (B represents a pKi value between 9 and 10 (Ki between 1 nM and 0.1 nM))” and the “THP-1 IL4 pIC50” value [1, 7] was “B (B represents a pEC50 value between 6.7 and 7.5 (EC50 between 200 nM and 32 nM))”.

For `C=CCOC(=O)N1[C@@H]2CC[C@H]1C[C@H](Nc1nc(Nc3cc(C)[nH]n3)cc3ncc(C(=O)OC)cc13)C2` [Example 6-40], the “JAK 1 (pKi)” value (JAK1) was “B (B represents a pKi value between 9 and 10 (Ki between 1 nM and 0.1 nM))”, the “JAK 2 (pKi)” value (JAK2) was “B (B represents a pKi value between 9 and 10 (Ki between 1 nM and 0.1 nM))” and the “THP-1 IL4 pIC50” value [1, 7] was “A (A represents a pEC50 value≥7.5 (EC50≤32 nM))”.

`CCC(=O)N1[C@@H]2CC[C@H]1C[C@H](Nc1nc(Nc3cc(C)[nH]n3)cc3ncc(C(=O)OC)cc13)C2` [Example 6-36] showed a Ki (JAK1; [9]) of 0.0001 to 0.001 µM, a Ki (JAK2; read-out: JAK 2 (pKi) (converted)) of 0.0001 to 0.001 µM and an IC50 [1, 3] of 0.0316 to 0.2 µM.

`Cc1cc(Nc2cc3ncc(S(C)(=O)=O)cc3c(N[C@@H]3C[C@H]4CC[C@@H](C3)N4Cc3ccncc3)n2)n[nH]1` [Example 6-59] was tested, and the “JAK 2 (pKi)” value (JAK2) was “A (A represents a pKi value≥10 (Ki≤0.1 nM))” and the “BEAS2B pIC50” value [2, 8] was “C (C represents a pEC50 value<6.7 (EC50>200 nM))”.

From patent US10072026B2, “Crystalline form of 3-((1R,3s,5S)-3-((7-((5-methyl-1H-pyrazol-3-yl)amino)-1,6-naphthyridin-5-yl)amino)-8-azabicyclo[3.2.1]octan-8-yl)propanenitrile” (priority 2015, dated 2018)
